Paper PMC11901818, “Salicylaldehyde Benzoylhydrazones with Anticancer Activity and Selectivity: Design, Synthesis, and In Vitro Evaluation” (Molecules, 2025)
Like-named read-outs stand apart in the source and are kept apart here.

Tests used:
[1] = system: leukemia cell lines (BV-173, K-562, SKW-3, AR-230, and HL-60); assay: MTT test, average over leukemia cell lines; assay type: cell-based, human; conditions: Avg. leukemia
Experimental: (§1) The ligand efficiencies (LEs), obtained by the ratio between pIC50 and the number of heavy atoms in the molecule, along with the selectivity indices (SIs), calculated by comparing IC50 of normal cells to IC50 of cancer cells, are presented in Table 4.
(§2) The spectrum of anti-tumor activity of the experimental compounds was assessed against human malignant cell lines of leukemic (HL-60, BV-173, K-562, AR-230, and SKW-3) and epithelial (MCF-7 and MDA-MB-231) origin, as well as normal human embryonic kidney cells (HEK-293). All cell lines were purchased from the German Collection of Microorganisms and Cell Cultures (DSMZ GmbH, Braunschweig, Germany), and cell cultures were maintained and grown in the appropriate medium specified by the provider and incubated under standard conditions of 37 °C and 5% humidified CO2 atmosphere.
(§3) The cytotoxicity assessment of the methoxysalicylaldehyde methoxybenzoylhydrazone series was performed using the Mosmann MTT method, a validated technique for evaluating cell viability. Cells in the exponential growth phase were harvested and seeded (100 µL/well) in 96-well plates at a suitable density (3 × 10^5 cells/well for suspension leukemic cultures and 1.5 × 10^5 cells/well for adherent epithelial cells). After a 24 h incubation period, the cells were treated with serial dilutions of the tested compounds within an appropriate concentration range. Following a 72 h exposure, an MTT substrate solution (5 mg/mL in PBS) was added to each well. After an additional 4 h incubation, purple insoluble formazan crystals formed. These crystals were then dissolved in an isopropyl alcohol solution containing 5% formic acid before measuring absorbance at 550 nm using a microplate reader Labexim LMR-1 (Vienna, Austria). The recorded absorbance values were blanked against MTT and isopropanol solution and normalized to the mean value of the untreated control (representing 100% cell viability). The experimental data were analyzed using non-linear regression analysis in GraphPad Prism® software 8.0 (San Diego, CA, USA), from which semi-logarithmic “dose–response” curves were constructed, and the half-inhibitory concentrations (IC50) of the tested compounds were calculated.

[2] = system: breast cancer cell lines (MCF-7, MDA-MB-231); assay: MTT test, average over breast cancer cell lines; assay type: cell-based, human; conditions: Avg. breast cancer
Experimental: as §1, §2
The cytotoxicity assessment of the methoxysalicylaldehyde methoxybenzoylhydrazone series was performed using the Mosmann MTT method, a validated technique for evaluating cell viability. Cells in the exponential growth phase were harvested and seeded (100 µL/well) in 96-well plates at a suitable density (3 × 10^5 cells/well for suspension leukemic cultures and 1.5 × 10^5 cells/well for adherent epithelial cells). After a 24 h incubation period, the cells were treated with serial dilutions of the tested compounds within an appropriate concentration range. […] These crystals were then dissolved in an isopropyl alcohol solution containing 5% formic acid before measuring absorbance at 550 nm using a microplate reader Labexim LMR-1 (Vienna, Austria). The recorded absorbance values were blanked against MTT and isopropanol solution and normalized to the mean value of the untreated control (representing 100% cell viability). The experimental data were analyzed using non-linear regression analysis in GraphPad Prism® software 8.0 (San Diego, CA, USA), from which semi-logarithmic “dose–response” curves were constructed, and the half-inhibitory concentrations (IC50) of the tested compounds were calculated.

[3] = system: K-562 cells (bcr-abl+ chronic myeloid leukemia); assay: Mosmann MTT cell viability test, K-562; assay type: cell-based, human; conditions: for IC50: Homo sapiens, K562, K-562, MTT, 72 h exposure, ± standard deviation; for Selectivity index (SI): IC50 HEK-293 / IC50 K-562
Experimental: (§4) The anticancer activity of the dimethoxy hydrazone derivatives was tested against a panel of malignant human cell lines of different tissue origin and molecular characteristics, including several in vitro leukemia models (acute promyelocytic leukemia HL-60; bcr-abl+ chronic myeloid leukemia cell lines BV-173, K-562, and AR-230; and T-cell leukemia SKW-3), as well as the two major phenotypes of human breast adenocarcinoma (hormone-sensitive MCF-7 cells with high progesterone (PR) and estrogen receptor α (ERα) expression and triple-negative breast adenocarcinoma (TNBC) MDA-MB-231 lacking ERα, PR, and human epidermal growth factor receptor 2 (HER2)). The existence and degree of cancer selectivity of the tested compounds were evaluated against normal human embryonic kidney HEK-293 cells.
as §2, §3

[4] = system: MCF-7 cells (breast ER+ adenocarcinoma); assay: Mosmann MTT cell viability test, MCF-7; assay type: cell-based, human; conditions: for IC50: Homo sapiens, MCF7, MCF-7, MTT, 72 h exposure, ± standard deviation; for Selectivity index (SI): IC50 HEK-293 / IC50 MCF-7
Experimental: as §4, §2, §3

[5] = system: HL-60 cells (acute promyelocytic leukemia); assay: Mosmann MTT cell viability test, HL-60; assay type: cell-based, human; conditions: for IC50: Homo sapiens, HL-60, MTT, 72 h exposure, ± standard deviation; for Selectivity index (SI): IC50 HEK-293 / IC50 HL-60
Experimental: as §4, §2, §3

[6] = system: all cancer cell lines (five leukemia, MCF-7, MDA-MB-231); assay: MTT test, average over all cancer cell lines; assay type: cell-based, human; conditions: Avg. all cancers
Experimental: as §1, §2, §3

[7] = system: BV-173 cells (bcr-abl+ chronic myeloid leukemia); assay: Mosmann MTT cell viability test, BV-173; assay type: cell-based, human; conditions: for IC50: Homo sapiens, BV-173, MTT, 72 h exposure, ± standard deviation; for Selectivity index (SI): IC50 HEK-293 / IC50 BV-173
Experimental: as §4, §2, §3

[8] = system: MDA-MB-231 cells (TNBC); assay: Mosmann MTT cell viability test, MDA-MB-231; assay type: cell-based, human; conditions: for IC50: Homo sapiens, MDA-MB-231, MTT, 72 h exposure, ± standard deviation; for Selectivity index (SI): IC50 HEK-293 / IC50 MDA-MB-231
Experimental: as §4, §2, §3

[9] = system: AR-230 cells (bcr-abl+ chronic myeloid leukemia); assay: Mosmann MTT cell viability test, AR-230; assay type: cell-based, human; conditions: for IC50: AR-230, MTT, 72 h exposure, ± standard deviation; for Selectivity index (SI): IC50 HEK-293 / IC50 AR-230
Experimental: as §4, §2, §3

[10] = system: normal human embryonic kidney cells, HEK-293; assay: Mosmann MTT cell viability test, HEK-293 (selectivity); assay type: cell-based; conditions: HEK293, HEK-293 normal cells, 72 h exposure, ± standard deviation
Experimental: as §4, §2, §3

[11] = system: SKW-3 cells (T-cell leukemia); assay: Mosmann MTT cell viability test, SKW-3; assay type: cell-based, human; conditions: for IC50: SKW-3, MTT, 72 h exposure, ± standard deviation; for Selectivity index (SI): IC50 HEK-293 / IC50 SKW-3
Experimental: as §4, §2, §3

COc1cccc(C(=O)NN=Cc2cccc(OC)c2O)c1 [Compound 2, N′-(2-hydroxy-3-methoxybenzylidene)-3-methoxybenzohydrazide]
Selectivity index (SI) [1]: 7 | Selectivity index (SI) [2]: 1 | IC50 [3]: 2.1 ± 0.1 µM | Selectivity index (SI) [3]: 8 | IC50 [4]: 25.6 ± 2.8 µM | Selectivity index (SI) [4]: 1 | IC50 [5]: 3.6 ± 0.3 µM | Selectivity index (SI) [5]: 5 | Selectivity index (SI) [6]: 5 | IC50 [7]: 2.7 ± 0.2 µM | Selectivity index (SI) [7]: 6 | IC50 [8]: 26.9 ± 3.3 µM | Selectivity index (SI) [8]: 1 | IC50 ([9]; Homo sapiens, read-out: IC50): 5.9 ± 0.7 µM | Selectivity index (SI) [9]: 3 | IC50 [10]: 16.8 ± 2.3 µM | IC50 ([11]; Homo sapiens, SKW3, 72 h): 1.4 ± 0.1 µM | Selectivity index (SI) [11]: 12

COc1cccc(C(=O)NN=Cc2ccc(OC)cc2O)c1 [Compound 4, N′-(2-hydroxy-4-methoxybenzylidene)-3-methoxybenzohydrazide]
Selectivity index (SI) [1]: 5 | IC50 [3]: 1.6 ± 0.2 µM | Selectivity index (SI) [3]: 5 | IC50 [4]: 23.3 ± 2.7 µM | IC50 [5]: 2.1 ± 0.2 µM | Selectivity index (SI) [5]: 4 | Selectivity index (SI) [6]: 4 | IC50 [7]: 2.2 ± 0.3 µM | Selectivity index (SI) [7]: 4 | IC50 [8]: 19.8 ± 3.1 µM | IC50 ([9]; Homo sapiens, read-out: IC50): 4.5 ± 0.4 µM | Selectivity index (SI) [9]: 2 | IC50 [10]: 8.6 ± 1.5 µM | IC50 ([11]; Homo sapiens, SKW3, 72 h): < 1 µM | Selectivity index (SI) [11]: 11 | IC50 [11]: 0.8 ± 0.1 µM

COc1ccc(C(=O)NN=Cc2ccc(OC)cc2O)cc1 [Compound 5, N′-(2-hydroxy-4-methoxybenzylidene)-4-methoxybenzohydrazide]
Selectivity index (SI) [1]: 9 | IC50 [3]: 1.5 ± 0.1 µM | Selectivity index (SI) [3]: 7 | IC50 [4]: 21.3 ± 1.9 µM | IC50 [5]: 4.7 ± 0.5 µM | Selectivity index (SI) [5]: 2 | Selectivity index (SI) [6]: 7 | IC50 [7]: 1.4 ± 0.2 µM | Selectivity index (SI) [7]: 7 | IC50 [8]: 60.1 ± 5 µM | IC50 ([9]; Homo sapiens, read-out: IC50): 1.1 ± 0.2 µM | Selectivity index (SI) [9]: 9 | IC50 [10]: 10.4 ± 1.1 µM | IC50 ([11]; Homo sapiens, SKW3, 72 h): < 1 µM | Selectivity index (SI) [11]: 21 | IC50 [11]: 0.5 ± 0.1 µM

COc1ccc(C(=O)NN=Cc2cccc(OC)c2O)cc1 [Compound 3, N′-(2-hydroxy-3-methoxybenzylidene)-4-methoxybenzohydrazide]
Selectivity index (SI) [1]: >27 | Selectivity index (SI) [2]: >4 | IC50 [3]: 2.8 ± 0.4 µM | Selectivity index (SI) [3]: >36 | IC50 [4]: 36.1 ± 4.4 µM | Selectivity index (SI) [4]: >3 | IC50 [5]: 2.4 ± 0.1 µM | Selectivity index (SI) [5]: >42 | Selectivity index (SI) [6]: >20 | IC50 [7]: 2.7 ± 0.2 µM | Selectivity index (SI) [7]: >19 | IC50 [8]: 23.5 ± 3.4 µM | Selectivity index (SI) [8]: >4 | IC50 [9]: not active | IC50 ([9]; Homo sapiens, read-out: IC50): > 100 µM | Selectivity index (SI) [9]: >1 | IC50 [10]: > 100 µM | IC50 ([11]; Homo sapiens, SKW3, 72 h): 2.7 ± 0.3 µM | Selectivity index (SI) [11]: >37

COc1ccccc1C(=O)NN=Cc1cccc(OC)c1O [Compound 1, N′-(2-hydroxy-3-methoxybenzylidene)-2-methoxybenzohydrazide]
Selectivity index (SI) [1]: >8 | Selectivity index (SI) [2]: >4 | IC50 [3]: 20.4 ± 2.9 µM | Selectivity index (SI) [3]: >5 | IC50 [4]: 30.1 ± 3.2 µM | Selectivity index (SI) [4]: >3 | IC50 [5]: 11.2 ± 2.1 µM | Selectivity index (SI) [5]: >9 | Selectivity index (SI) [6]: >7 | IC50 [7]: 33.5 ± 3.4 µM | Selectivity index (SI) [7]: >3 | IC50 [8]: 22 ± 2.8 µM | Selectivity index (SI) [8]: >5 | IC50 ([9]; Homo sapiens, read-out: IC50): 50.5 ± 6.6 µM | Selectivity index (SI) [9]: >2 | IC50 [10]: > 100 µM | IC50 ([11]; Homo sapiens, SKW3, 72 h): 4.3 ± 0.5 µM | Selectivity index (SI) [11]: >23
